Test results as given in patent US20090076067A1, “PHARMACEUTICAL COMPOSITION COMPRISING AZARHODACYANINE COMPOUND AS ACTIVE INGREDIENT” (priority 2005, published 2009).

Key:
[1] = test system: Plasmodium berghei NK 65 strain; experiment: animal or person; assay type: in vivo; details: for Survival days (mean survival days, treatment group minus control group) / Recovery Rate (suppression): 4 days; for Recovery Rate (suppression): P. berghei infected ICR mice; for Acute toxicity in treated mice: 25 mg/kg/day dose
From the text: For a test to evaluate therapeutic effect of the compound, 4-day suppressive test which is commonly used for in vivo test to evaluate activity of anti-malaria compound was used. In this experiment, rodent malaria protozoa (Plasmodium berghei NK 65 strain) were used. The infected blood was collected from 5-weeks age (SPF) ICR strain male mouse which were infected intraperitoneally and successively cultured. From the caudal vein of the infected mouse, blood was collected to calculate infection rate. After confirming that infection rate was adequately elevated (10% to 20% infection), the malaria infected blood was collected from the heart of the mouse. The infection rate and count of the red blood cells (cells/mL) were calculated. The infected red blood cell was diluted with PBS buffer to achieve […] protozoa per 0.2 mL dose. The infected cells were injected to the caudal vein of uninfected mouse (ICR strain, male, 5-weeks age) to cause infection. Five mice were made into one group, and the test compound was administered in predefined concentration. From 2 hours after infection, the compound was administered every 24 hours for straight 4 days.
The compound of the invention to be used in this test was dissolved in saline (Otsuka Pharmaceutical Co., Ltd.) to obtain test solution of predefined concentration. When the compound was not dissolved in saline, it was dissolved in SSV (saline containing 0.5% sodium=carboxymethyl cellulose, 0.5% benzyl alcohol, 0.4% Tween 80) to prepare test solution. For the control group (non-treatment group), only saline (Otsuka) was administered. Positive controls S-1 to S-5 were dissolved in saline (Otsuka) or SSV in predetermined concentration to prepare test solution. When the compound was not dissolved in saline, it was dissolved in SSV. After measuring weight of each mouse, the dose for each mouse was calculated to achieve 5.0 to 40 mg concentration for weight1 kg.
Five mice were made into one group, and the test compound was administered intraperitoneally at predefined concentration. From 2 hours after infection, the compound was administered every 24 hours for straight 4 days. Subsequent to the 24 hours after last treatment, blood was collected from the tail of the mouse to prepare thin layer smear in order to count malaria protozoa infection in the treatment group and the control group under microscope. The mice showing maximum value and minimum value were excluded from the average calculation (average was calculated for three mice), to determine malaria protozoa infection rate (Parasitemia).
Using malaria protozoa infection rate thus calculated, recovery rate obtained from the test compound (suppression) was determined.
Recovery rate: suppression(%)=(b−a)/b×100 a: Protozoa infection rate in the treatment group b: Protozoa infection rate in the control group Mean survival days: MSD(day)=c−d c: Average days from the initial treatment (date of malaria infection) to the date of death for the treatment group (5 mice) d: Average days from the date of malaria infection to the date of death for the non-treatment (control) group (5 mice) […]
Tables 5 to 7 illustrate the recovery rate (%) and survival days (day) of malaria infected mice treated with intraperitoneal injection of the test compound and the control compound at predefined concentration. The meaning of symbols in the table is as follows.

[2] = test system: Plasmodium Falciparum k1 strain; experiment: Chloroquine-resistant tropical malaria protozoa proliferation inhibition screening test; assay type: cell-based; details: chloroquine-resistant K1 strain; 3H-hypoxanthine uptake
Experimental: In this experiment, Plasmodium Falciparum k1 strain protozoa were used. The medium used in the experiment was filter-sterilized RPMI-1640 medium. To the medium human serum was added to achieve 5% concentration. The protozoa was cultured under condition of O2 concentration 3%, CO2 concentration 4%, N2 concentration 93%, and temperature 37° C.
The cultured malaria infected red blood cells were collected by centrifugation, diluted with non-infected red blood cells, to achieve initial infection rate 0.15%. The hematocrit was 2.5%.
To each well in a 96-well culture plate, 200 μL malaria infected culture was added, and either test solution containing test compound at predefined concentration or DMSO having no test compound was added. Each test solution was prepared in duplicate. After 48 hours culture under 37° C., hypoxanthine labeled with radioactive tritium (^3H) of 0.5 μCi was added to each well. After culturing under same condition for 24 hours, the product was collected on a glass fiber filter and washed. The intensity of radiation was measured by Beta plate liquid scintillation counter (Wallac Inc.), to determine malaria protozoa infection rate in test compound samples and control samples.
Using the malaria protozoa infection rate, the proliferation inhibition rate was calculated according to the following equation to determine 50% proliferation inhibition concentration (EC50).
Proliferation inhibition rate(%)={1−(b−a)/(c−a)}×100
a: initial infection rate b: infection rate of test compound solution c: infection rate of the control

[3] = test system: Rat-derived L6 cells (rat skeletal myoblast cell); experiment: Rat L6 cell proliferation inhibition test; assay type: cell-based; details: Table 1, 72 hours, Alamar Blue
Experimental: Rat-derived L6 cells (rat skeletal myoblast cell) were used for this test. […] The sample was cultured under CO2 concentration 5% and temperature 37° C. Either the composition of the invention or control was dissolved into DMSO, to prepare test solutions having predefined concentration.
The samples were precultured until logarithmic growth phase was reached. Then the culture was transferred to each well in a 96-well culture plate, and either test solution containing test compound at predefined concentration or DSMO without compound was added. The test solution was duplicated.
The plate was cultured in an incubator for 72 hours, to examine proliferation inhibition activity. The activity was examined as follows. Alamar Blue water solution 10 μL was added to each well, and culture was continued for 2 hours. Next, the culture plate was mounted on a fluorescence microplate reader (Spectramax Gemeni XS; Molecular Devices Corporation, U.S.), and irradiated with excitation wavelength 536 nm to determine fluorescence at 588 nm. The survival rate of L6 cells in the test solution sample and control sample was calculated.
Proliferation inhibition rate(%)={(C−A)/(B−A)}×100
A: Initial cell count B: Cell count in control after 3 days C: Cell count in test solution after 3 days

[4] = Plasmodium berghei, ip, 96 h, read-out: Recovery Rate (suppression)
[5] = dose 25 mg/kg/d intraperitoneally
[6] = dose 5.0 mg/kg/d intraperitoneally

## CCN1C(=O)/C(=C2\C=Cc3ccccc3N2C)S/C1=N\c1cccc[n+]1C [Compound A-14]
[1]; [4]
  inhibition in vivo at 10 mg/kg/day: 64.5%

## CCN1C(=O)/C(=C2\C=CC=CN2C)S/C1=N\c1cc[n+](C)c2cc(Cl)ccc12 [Compound A-15]
[1]; [4]
  inhibition in vivo at 25 mg/kg/day: 60.3%
[1]; [5]
  Survival days (mean survival days, treatment group minus control group): 2.0 days

## CCn1c(=O)/c(=C2\C=CC=CN2C)s/c1=C1\S/C(=N\c2sc3cc(Cl)ccc3[n+]2C)N(c2ccccc2)C1=O [Compound B-11]
[1]; [4]
  inhibition in vivo at 25 mg/kg/day: 82.7%

## CCn1c(=O)/c(=C2\C=CC=CN2C)s/c1=C1\S/C(=N\c2scc(-c3ccc(Cl)cc3)[n+]2C)N(c2ccccc2)C1=O [Compound B-13]
[1]; [4]
  inhibition in vivo at 25 mg/kg/day: 95.6%

## CCn1c(=O)/c(=C2\C=CC=CN2C)s/c1=C1\S/C(=N\c2sc3cc(Cl)ccc3[n+]2C)N(Cc2ccccc2)C1=O [Compound B-16]
[1]; [4]
  inhibition in vivo at 20 mg/kg/day: 97.4%

## CCn1c(=O)/c(=C2\C=CC=CN2C)s/c1=C1\S/C(=N\c2sc3cc(Cl)ccc3[n+]2C)N(c2ccc(OC)cc2)C1=O [Compound B-17]
[1]; [4]
  inhibition in vivo at 25 mg/kg/day: 73.1%
[1]; [5]
  Survival days (mean survival days, treatment group minus control group): 6.8 days

## CCn1c(=O)/c(=c2\nc3c(o2)=CC=CN3C)s/c1=C1\S/C(=N\c2sc3cc(Cl)ccc3[n+]2C)N(Cc2ccccc2)C1=O [Compound B-18]
[1]; [5]
  Survival days (mean survival days, treatment group minus control group): 7.0 days
  Recovery Rate (suppression): 22.39%

## CCN1C(=O)/C(=c2/s/c(=C3/C=CC=CN3C)c(=O)n2CC)S/C1=N\c1scc[n+]1C [Compound B-19]
[2]
  EC50 P. falciparum K1: 0.0166 mg/L
[3]
  EC50 cytotoxicity L6: 27.92 mg/L

## CCN1C(=O)/C(=c2/s/c(=c3/nc4c(o3)=CC=CN4C)c(=O)n2CC)S/C1=N\c1scc[n+]1C [Compound B-20]
[1]; [5]
  Survival days (mean survival days, treatment group minus control group): 6.3 days
  Recovery Rate (suppression): 56.1%
[2]
  EC50 P. falciparum K1: 0.017 mg/L
[3]
  EC50 cytotoxicity L6: 69.34 mg/L

## CCn1c(=O)/c(=C2\C=CC=CN2C)s/c1=C1\S/C(=N\c2scc[n+]2C)N(Cc2ccccc2)C1=O [Compound B-21]
[1]; [5]
  Survival days (mean survival days, treatment group minus control group): 7.0 days
  Recovery Rate (suppression): 80.4%

## CCn1c(=O)/c(=C2\SCCN2C)s/c1=C1\S/C(=N\c2scc[n+]2C)N(Cc2ccccc2)C1=O [Compound B-23]
[1]; [5]
  Survival days (mean survival days, treatment group minus control group): 7.0 days
  Recovery Rate (suppression): 85.1%

## CCn1c(=O)/c(=C2\SCCN2C)s/c1=C1\S/C(=N\c2sc3cc(Cl)ccc3[n+]2C)N(c2ccc(OC)cc2)C1=O [Compound B-26]
[1]; [5]
  Survival days (mean survival days, treatment group minus control group): 2.0 days
  Recovery Rate (suppression): 64.3%

## CCN1C(=O)/C(=c2/s/c(=C3/SCCN3C)c(=O)n2CC)S/C1=N\c1scc[n+]1C [Compound B-27]
[1]; [5]
  Survival days (mean survival days, treatment group minus control group): 2.0 days
  Recovery Rate (suppression): 55.4%

## CCN1C(=O)/C(=c2/s/c(=C3/SCCN3C)c(=O)n2CC)S/C1=N\c1sc2ccccc2[n+]1C [Compound B-31]
[1]; [5]
  Survival days (mean survival days, treatment group minus control group): 1.7 days
  Recovery Rate (suppression): 90.6%

## C=CCN1C(=O)/C(=c2/s/c(=C3/C=CC=CN3C)c(=O)n2CC)S/C1=N\c1sc2cc(Cl)ccc2[n+]1C [Compound B-38]
[1]; [5]
  Recovery Rate (suppression): 95.7%

## C=CCN1C(=O)/C(=c2/s/c(=C3/C=CC=CN3C)c(=O)n2CC)S/C1=N\c1scc[n+]1C [Compound B-40]
[3]
  EC50 cytotoxicity L6: 27.38 mg/L

## C=CCN1C(=O)/C(=c2/s/c(=C3/SCCN3C)c(=O)n2CC)S/C1=N\c1scc[n+]1C [Compound B-41]
[1]; [5]
  Survival days (mean survival days, treatment group minus control group): 1.3 days
  Recovery Rate (suppression): 58.5%

## CCN1C(=O)/C(=C/C=C2\Sc3ccccc3N2C)S/C1=N\c1sc2cc(Cl)ccc2[n+]1C [Compound C-2]
[1]; [6]
  Recovery Rate (suppression): 32.1%
[2]
  EC50 P. falciparum K1: 0.02495 mg/L
[3]
  EC50 cytotoxicity L6: 11.33 mg/L

## CCN1C(=O)/C(=C/C=C2\Sc3ccccc3N2C)S/C1=N\c1c(O)ccc[n+]1C [Compound C-3]
[1]; [6]
  Recovery Rate (suppression): 43.9%

## CCN1C(=O)/C(=C/C=C2\Sc3ccccc3N2C)S/C1=N\c1scc(-c2ccc(Cl)cc2)[n+]1C [Compound C-4]
[1]; [4]
  inhibition in vivo at 5 mg/kg/day: 37.9%

## CCn1c(=O)/c(=C2\Sc3ccccc3N2C)s/c1=C\c1cccc[n+]1CC [Compound S-1, reference compound]
[1]; [4]
  inhibition in vivo at 10 mg/kg/day: 30%
[1]; [5]
  Toxicity noted: toxic

## C=CCn1c(=O)/c(=C2\Sc3ccccc3N2C)s/c1=C\c1cccc[n+]1C [Compound S-2, reference compound]
[1]
  Acute toxicity in treated mice: caused death
[1]; [4]
  inhibition in vivo at 10 mg/kg/day: 27%

## CCn1c(=O)/c(=C2\Sc3ccc4ccccc4c3N2C)s/c1=C\c1cccc[n+]1C [Compound S-4, reference compound]
[1]
  Acute toxicity in treated mice: caused death
[1]; [4]
  inhibition in vivo at 5 mg/kg/day: 17.1%
  inhibition in vivo at 10 mg/kg/day: 36%
[1]; [5]
  Toxicity noted: toxic

## CCn1c(=O)/c(=c2/s/c(=C3/Sc4ccccc4N3C)c(=O)n2CC)s/c1=C\c1sc2ccccc2[n+]1C [Compound S-5, reference compound]
[1]; [4]
  inhibition in vivo at 5 mg/kg/day: 41%

## C=CCn1c(=O)/c(=C2\C=CC=CN2C)s/c1=c1\s/c(=C\c2cccc[n+]2C)n(CC)c1=O [Compound S-6, reference compound]
[1]; [4]
  inhibition in vivo at 50 mg/kg/day: 25.9%
[1]; dose 50 mg/kg/d intraperitoneally
  Survival days (mean survival days, treatment group minus control group): 0 days

## C=C[C@H]1C[N@@]2CC[C@H]1C[C@H]2[C@H](O)c1ccnc2ccc(OC)cc12 [Quinine, reference compound]
[1]; [4]
  inhibition in vivo at 10 mg/kg/day: 18.6%
[1]; dose 10 mg/kg/d intraperitoneally
  Survival days (mean survival days, treatment group minus control group): 1.0 days
